Measured values reported in patent US10597388B2, “Pyridazinone herbicides” (FMC CORPORATION, priority 2014, dated 2020).

Experiments:
Format in all cases: in vivo
[1] = test system: barnyardgrass (Echinochloa crus-galli); assay: Test A greenhouse herbicide test, pre- and postemergence
In short: (§1)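 Seeds in loam–sand blend received a preemergence directed soil spray; plants at 2–10 cm, one- to two-leaf stage, received postemergence sprays. Compounds in a non-phytotoxic solvent with surfactant. After about 10 d in a greenhouse, injury rated visually versus untreated controls on a 0–100 scale (100 = complete control).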

corn (Zea mays) = assay: as above; conditions: Postemergence
In short: as §1

[2] = test system: foxtail, giant (giant foxtail, Setaria faberii); assay: as above
In short: as §1

kochia (Kochia scoparia) = assay: as above
In short: as §1

[3] = test system: pigweed (Amaranthus retroflexus); assay: as above
In short: as §1

[4] = test system: ragweed (common ragweed, Ambrosia elatior); assay: as above
In short: as §1

[5] = test system: ryegrass, Italian (Italian ryegrass, Lolium multiflorum); assay: as above
In short: as §1

[6] = test system: wheat (Triticum aestivum); assay: as above; conditions: Postemergence
In short: as §1

[7] = test system: barnyardgrass (Echinochloa crus-galli); assay: Test C greenhouse herbicide test, pre- and postemergence
Text: (§2) Seeds of plant species selected from blackgrass (Alopecurus myosuroides), ryegrass, Italian (Italian ryegrass, Lolium multiflorum), wheat (winter wheat, Triticum aestivum), galium (catchweed bedstraw, Galium aparine), corn (Zea mays), large crabgrass, large (large crabgrass, Digitaria sanguinalis), foxtail, giant (giant foxtail, Setaria faberii), johnsongrass (Sorghum halepense), lambsquarters (Chenopodium album), morningglory (Ipomoea coccinea), nutsedge, yellow (yellow nutsedge, Cyperus esculentus), pigweed (Amaranthus retroflexus), ragweed (common ragweed, Ambrosia elatior), soybean (Glycine max), barnyardgrass (Echinochloa crus-galli), oilseed rape (Brassica napus), waterhemp (common waterhemp, Amaranthus rudis), and velvetleaf (Abutilon theophrasti) were planted into a blend of loam soil and sand and treated preemergence with test chemicals formulated in a non-phytotoxic solvent mixture which included a surfactant.
(§3) At the same time, plants selected from these crop and weed species and also chickweed (common chickweed, Stellaria media), kochia (Kochia scoparia), and oat, wild (wild oat, Avena fatua), were planted in pots containing Redi-Earth® planting medium (Scotts Company, 14111 Scottslawn Road, Marysville, Ohio 43041) comprising spaghnum peat moss, vermiculite, wetting agent and starter nutrients and treated with postemergence applications of test chemicals formulated in the same manner. Plants ranged in height from 2 to 18 cm (1- to 4-leaf stage) for postemergence treatments. Treated plants and controls were maintained in a greenhouse for 13 to 15 d, after which time all species were compared to controls and visually evaluated. Plant response ratings, summarized in Table C, are based on a scale of 0 to 100 where 0 is no effect and 100 is complete control. A dash (-) response means no test result.

[8] = test system: galium (catchweed bedstraw, Galium aparine); assay: as above
Text: as §2, §3

[9] = test system: velvetleaf (Abutilon theophrasti); assay: as above
Text: as §2, §3

[10] = Postemergence, 125 g ai/ha, 0 to 100 scale where 0 is no effect and 100 is complete control
[11] = Postemergence, 500 g ai/ha, visual rating after approx. 10 d, 0 to 100 scale (0 no effect, 100 complete control)
[12] = Preemergence, 125 g ai/ha, 0 to 100 scale where 0 is no effect and 100 is complete control
[13] = Preemergence, 500 g ai/ha, 0 to 100 scale where 0 is no effect and 100 is complete control
[14] = 125 g ai/ha, 0 to 100 scale where 0 is no effect and 100 is complete control
[15] = 500 g ai/ha, visual rating after approx. 10 d, 0 to 100 scale (0 no effect, 100 complete control)
[16] = Postemergence, 31 g ai/ha, scale 0 to 100 (0 no effect, 100 complete control)
[17] = Postemergence, 62 g ai/ha, 0 to 100 scale (0 no effect, 100 complete control)
[18] = Postemergence, 125 g ai/ha, scale 0 to 100, 0 is no effect, 100 is complete control
[19] = Postemergence, 250 g ai/ha, scale 0 to 100, 0 no effect, 100 complete control, 13 to 15 d
[20] = Preemergence, 31 g ai/ha, scale 0 to 100, 0 is no effect, 100 is complete control
[21] = Preemergence, 62 g ai/ha, scale 0 to 100, 0 is no effect, 100 is complete control
[22] = Preemergence, 125 g ai/ha, scale 0 to 100, 0 is no effect, 100 is complete control
[23] = Preemergence, 250 g ai/ha, scale 0 to 100 (0 no effect, 100 complete control)
[24] = postemergence, 125 g ai/ha, scale 0 to 100, 0 no effect, 100 complete control
[25] = Postemergence, 125 g ai/ha, visual rating after approx. 10 d, 0 to 100 scale (0 no effect, 100 complete control)
[26] = Postemergence, 500 g ai/ha, 0 to 100 scale, 0 is no effect, 100 is complete control
[27] = Preemergence, 500 g ai/ha, 0 to 100 scale, 0 no effect, 100 complete control
[28] = 500 g ai/ha, 0 to 100 scale, 0 is no effect, 100 is complete control
[29] = Postemergence, 31 g ai/ha, 0 to 100 scale (0 no effect, 100 complete control)
[30] = postemergence, 62 g ai/ha, scale 0 to 100, 0 no effect, 100 complete control

CCC(=O)Oc1c(C)nn(C)c(=O)c1-c1ccc(Br)c2ccccc12 [Compound 133]
Plant response rating, Barnyardgrass [1, 10]: 20
Plant response rating, Barnyardgrass [1, 11]: 90
Barnyardgrass plant response rating [1, 12]: 20
Plant response rating, Barnyardgrass [1, 13]: 50
Plant response rating, Corn (corn (Zea mays); [14]): 10
Plant response rating, Corn (corn (Zea mays); [15]): 50
Plant response rating, Foxtail, Giant [2, 10]: 20
Plant response rating, Foxtail, Giant [2, 11]: 90
Foxtail, Giant plant response rating [2, 12]: 40
Plant response rating, Foxtail, Giant [2, 13]: 70
Plant response rating, Kochia (kochia (Kochia scoparia); [10]): 90
Plant response rating, Kochia (kochia (Kochia scoparia); [11]): 100
Kochia plant response rating (kochia (Kochia scoparia); [12]): 40
Plant response rating, Kochia (kochia (Kochia scoparia); [13]): 100
Plant response rating, Pigweed [3, 10]: 90
Plant response rating, Pigweed [3, 11]: 100
Pigweed plant response rating [3, 12]: 80
Plant response rating, Pigweed [3, 13]: 100
Plant response rating, Ragweed [4, 10]: 100
Plant response rating, Ragweed [4, 11]: 100
Ragweed plant response rating [4, 12]: 90
Plant response rating, Ragweed [4, 13]: 100
Plant response rating, Ryegrass, Italian [5, 10]: 100
Plant response rating, Ryegrass, Italian [5, 11]: 100
Ryegrass, Italian plant response rating [5, 12]: 100
Plant response rating, Ryegrass, Italian [5, 13]: 100
Plant response rating, Wheat [6, 14]: 20
Plant response rating, Wheat [6, 15]: 30
Plant response rating, Barnyardgrass [7, 16]: 15
Barnyardgrass plant response rating [7, 17]: 30
Plant response rating, Barnyardgrass [7, 18]: 45
Plant response rating, Barnyardgrass [7, 19]: 35
Plant response rating, Barnyardgrass [7, 20]: 0
Plant response rating, Barnyardgrass [7, 21]: 40
Plant response rating, Barnyardgrass [7, 22]: 50
Barnyardgrass plant response rating [7, 23]: 95
Plant response rating, Galium [8, 16]: 90
Galium plant response rating [8, 17]: 95
Plant response rating, Galium [8, 19]: 100
Plant response rating, Galium [8, 20]: 95
Plant response rating, Galium [8, 21]: 95
Plant response rating, Galium [8, 22]: 100
Galium plant response rating [8, 23]: 100
Galium plant response rating [8, 24]: 98
Plant response rating, Velvetleaf [9, 16]: 85
Velvetleaf plant response rating [9, 17]: 90
Plant response rating, Velvetleaf [9, 19]: 100
Plant response rating, Velvetleaf [9, 20]: 55
Plant response rating, Velvetleaf [9, 21]: 90
Plant response rating, Velvetleaf [9, 22]: 90
Velvetleaf plant response rating [9, 23]: 100
Velvetleaf plant response rating [9, 24]: 100

COc1nn(C)c(=O)c(-c2c(C)sc3ccccc23)c1O [Compound 33]
Plant response rating, Barnyardgrass [1, 25]: 40
Barnyardgrass plant response rating [1, 26]: 90
Barnyardgrass plant response rating [1, 12]: 20
Plant response rating, Barnyardgrass [1, 27]: 90
Plant response rating, Corn (corn (Zea mays); 125 g ai/ha, visual rating after approx. 10 d, 0 to 100 scale (0 no effect, 100 complete control)): 0
Corn plant response rating (corn (Zea mays); [28]): 10
Plant response rating, Foxtail, Giant [2, 25]: 40
Foxtail, Giant plant response rating [2, 26]: 90
Foxtail, Giant plant response rating [2, 12]: 50
Plant response rating, Foxtail, Giant [2, 27]: 70
Plant response rating, Kochia (kochia (Kochia scoparia); [25]): 90
Kochia plant response rating (kochia (Kochia scoparia); [26]): 100
Kochia plant response rating (kochia (Kochia scoparia); [12]): 30
Plant response rating, Kochia (kochia (Kochia scoparia); [27]): 80
Plant response rating, Pigweed [3, 25]: 40
Pigweed plant response rating [3, 26]: 70
Pigweed plant response rating [3, 12]: 20
Plant response rating, Pigweed [3, 27]: 20
Plant response rating, Ragweed [4, 25]: 90
Ragweed plant response rating [4, 26]: 90
Ragweed plant response rating [4, 12]: 80
Plant response rating, Ragweed [4, 27]: 100
Plant response rating, Ryegrass, Italian [5, 10]: 50
Ryegrass, Italian plant response rating [5, 26]: 70
Ryegrass, Italian plant response rating [5, 12]: 20
Plant response rating, Ryegrass, Italian [5, 27]: 60
Plant response rating, Wheat [6, 14]: 0
Wheat plant response rating [6, 28]: 0
Barnyardgrass plant response rating [7, 29]: 25
Plant response rating, Barnyardgrass [7, 18]: 50
Plant response rating, Barnyardgrass [7, 19]: 80
Barnyardgrass plant response rating [7, 30]: 25
Galium plant response rating [8, 29]: 90
Plant response rating, Galium [8, 18]: 95
Plant response rating, Galium [8, 19]: 95
Galium plant response rating [8, 30]: 90
Velvetleaf plant response rating [9, 29]: 10
Plant response rating, Velvetleaf [9, 18]: 75
Plant response rating, Velvetleaf [9, 19]: 85
Velvetleaf plant response rating [9, 30]: 60

Cc1nn(C)c(=O)c(-c2ccc(F)c3ccccc23)c1OC(=O)CC(F)(F)F [Compound 123]
Plant response rating, Barnyardgrass [1, 10]: 40
Plant response rating, Barnyardgrass [1, 11]: 70
Barnyardgrass plant response rating [1, 12]: 0
Plant response rating, Barnyardgrass [1, 13]: 80
Plant response rating, Corn (corn (Zea mays); [14]): 0
Plant response rating, Corn (corn (Zea mays); [15]): 20
Plant response rating, Foxtail, Giant [2, 10]: 50
Plant response rating, Foxtail, Giant [2, 11]: 60
Foxtail, Giant plant response rating [2, 12]: 70
Plant response rating, Foxtail, Giant [2, 13]: 70
Plant response rating, Kochia (kochia (Kochia scoparia); [10]): 70
Plant response rating, Kochia (kochia (Kochia scoparia); [11]): 70
Kochia plant response rating (kochia (Kochia scoparia); [12]): 50
Plant response rating, Kochia (kochia (Kochia scoparia); [13]): 100
Plant response rating, Pigweed [3, 10]: 60
Plant response rating, Pigweed [3, 11]: 70
Pigweed plant response rating [3, 12]: 100
Plant response rating, Pigweed [3, 13]: 100
Plant response rating, Ragweed [4, 10]: 50
Plant response rating, Ragweed [4, 11]: 90
Ragweed plant response rating [4, 12]: 60
Plant response rating, Ragweed [4, 13]: 70
Plant response rating, Ryegrass, Italian [5, 10]: 90
Plant response rating, Ryegrass, Italian [5, 11]: 100
Ryegrass, Italian plant response rating [5, 12]: 90
Plant response rating, Ryegrass, Italian [5, 13]: 100
Plant response rating, Wheat [6, 14]: 0
Plant response rating, Wheat [6, 15]: 20
Plant response rating, Barnyardgrass [7, 16]: 20
Plant response rating, Barnyardgrass [7, 18]: 40
Plant response rating, Barnyardgrass [7, 19]: 70
Barnyardgrass plant response rating [7, 30]: 25
Plant response rating, Galium [8, 16]: 95
Plant response rating, Galium [8, 18]: 95
Plant response rating, Galium [8, 19]: 95
Plant response rating, Velvetleaf [9, 16]: 65
Plant response rating, Velvetleaf [9, 18]: 85
Plant response rating, Velvetleaf [9, 19]: 95
